Counter-ions that a name gives are not always drawn.
Experiments:
[1] = Diameter and PDI from DLS measurements of mRNA nanoparticles with lipid amines; type: physicochemical
In short: (§1)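 DLS gave size and PDI, and Ribogreen gave encapsulation, for luciferase- or CFTR-mRNA nanoparticles (N:P 4.93). Particles came from IL1/DSPC/cholesterol/PEG-DMG-2K mixed at pH 4, mRNA-loaded, neutralized with TRIS pH 8.12, and then treated with lipid amine SA50 in pH 7.5 buffer.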

[2] = Encapsulation of mRNA nanoparticles with lipid amines using Ribogreen assay; type: physicochemical
In short: as §1

HeLa cells [3] = assay: Luciferase Protein Expression Assay in HeLa Cells; type: cell-based, Human; details: LNPs encapsulating Luciferase mRNA, 25 ng per well, N=4 wells; 5 h serum-free then 24 h; ONE-Glo
In short: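 Luminescence output, average RLU across N=4 wells, was measured with ONE-Glo after cell lysis. Before that, HeLa cells were exposed to 25 ng/well luciferase-mRNA nanoparticles (PBS control) for 5 h serum-free, then cultured overnight (24 h) in complete MEM.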

HeLa cells [4] = assay: CFTR Protein Expression Assay in HeLa Cells; type: cell-based, Human; details: LNPs encapsulating CFTR mRNA, N=4 wells; 5 h serum-free then 24 h; immunofluorescence vs PBS control
In short: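 Readout is fold-change in per-cell CFTR immunofluorescence intensity (488 nm, confocal imaging) relative to PBS-treated cells, from 4 replicate wells. LNPs encapsulating CFTR mRNA were applied serum-free for 5 h, followed by 24 h in complete medium before PFA fixation.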

[5] = CFTR mRNA nanoparticle with lipid amine
[6] = Luciferase mRNA nanoparticle modified with lipid amine

Row | Compound | Diameter (nm) [1, 5] [nm] | PDI [1, 5] | Diameter (nm) [1, 6] [nm] | PDI [1, 6] | % Encapsulation (Ribogreen) [2, 5] [%] | % Encapsulation (Ribogreen) [2, 6] [%] | Average Relative Light Units ± Standard Deviation (HeLa cells [3]) [Relative Light Units] | Average fold-change in CFTR signal intensity per cell compared to buffer control ± standard deviation (HeLa cells [4]) [fold-change]
1 | CC(C)CCC[C@@H](C)[C@H]1CC[C@H]2[C@@H]3CC=C4C[C@@H](OC(=O)CCCC(=O)N(CCCCCCCC(C)N)CCC(C)N)CC[C@]4(C)[C@H]3CC[C@]12C (stereo partly drawn) [SA142, (3S,8S,9S,10R,13R,14S,17R)-10,13-dimethyl-17-((R)-6-methylheptan-2-yl)-2,3,4,7,8,9,10,11,12,13,14,15,16,17-tetradecahydro-1H-cyclopenta[a]phenanthren-3-yl 5-((3-aminobutyl)(8-aminononyl)amino)-5-oxopentanoate dihydrochloride] | 69.5 | 0.14 | 72 | 0.19 | 99.0 | 99.5 | 44925.4 ± 6006.5 | 20.0 ± 1.0
2 | CC[C@H](CC[C@@H](C)[C@H]1CC[C@H]2[C@@H]3CC=C4C[C@@H](OC(=O)N(CCCCCCCC(C)N)CCC(C)N)CC[C@]4(C)[C@H]3CC[C@]12C)C(C)C (stereo partly drawn) [SA144, (3S,8S,9S,10R,13R,14S,17R)-17-((2R,5R)-5-ethyl-6-methylheptan-2-yl)-10,13-dimethyl-2,3,4,7,8,9,10,11,12,13,14,15,16,17-tetradecahydro-1H-cyclopenta[a]phenanthren-3-yl (3-aminobutyl)(8-aminononyl)carbamate dihydrochloride] | 69.3 | 0.12 | 71 | 0.15 | 98.8 | 99.2 | 33357.5 ± 5288.8 | 17.9 ± 2.1
3 | CC(C)CCC[C@@H](C)[C@H]1CC[C@H]2[C@@H]3CC=C4C[C@@H](SSCCC(=O)N(CCCC(C)(C)N)CCC(C)(C)N)CC[C@]4(C)[C@H]3CC[C@]12C [SA145, N-(3-amino-3-methylbutyl)-N-(4-amino-4-methylpentyl)-3-(((3S,8S,9S,10R,13R,14S,17R)-10,13-dimethyl-17-((R)-6-methylheptan-2-yl)-2,3,4,7,8,9,10,11,12,13,14,15,16,17-tetradecahydro-1H-cyclopenta[a]phenanthren-3-yl)disulfaneyl)propanamide dihydrochloride] | 71.8 | 0.14 | 77 | 0.17 | 99.8 | 99.7 | 36033.7 ± 4254.5 | 14.4 ± 0.6
4 | CC[C@H](CC[C@@H](C)[C@H]1CC[C@H]2[C@@H]3CC=C4C[C@@H](OC(=O)N(CCCC(C)(C)N)CCC(C)(C)N)CC[C@]4(C)[C@H]3CC[C@]12C)C(C)C [SA149, (3S,8S,9S,10R,13R,14S,17R)-17-((2R,5R)-5-ethyl-6-methylheptan-2-yl)-10,13-dimethyl-2,3,4,7,8,9,10,11,12,13,14,15,16,17-tetradecahydro-1H-cyclopenta[a]phenanthren-3-yl (3-amino-3-methylbutyl)(4-amino-4-methylpentyl)carbamate dihydrochloride] | 72.3 | 0.14 | 75 | 0.15 | 99.9 | 99.5 | 31035.2 ± 6333.7 | 15.8 ± 1.4
5 | CC(C)CCC[C@@H](C)[C@H]1CC[C@H]2[C@@H]3CC=C4C[C@@H](OC(=O)N(CCCCCCCC(C)N)CCC(C)N)CC[C@]4(C)[C@H]3CC[C@]12C (stereo partly drawn) [SA151, (3S,8S,9S,10R,13R,14S,17R)-10,13-dimethyl-17-((R)-6-methylheptan-2-yl)-2,3,4,7,8,9,10,11,12,13,14,15,16,17-tetradecahydro-1H-cyclopenta[a]phenanthren-3-yl (3-aminobutyl)(8-aminononyl)carbamate dihydrochloride] | 72.0 | 0.14 | 72 | 0.12 | 98.2 | 95.8 | 36345.5 ± 6730.7 | 20.2 ± 1.3
6 | CC(C)CCC[C@@H](C)[C@H]1CC[C@H]2[C@@H]3CC=C4C[C@@H](OC(=O)N(CCCCCCCC(C)(C)N)CCC(C)(C)N)CC[C@]4(C)[C@H]3CC[C@]12C [SA152, (3S,8S,9S,10R,13R,14S,17R)-10,13-dimethyl-17-((R)-6-methylheptan-2-yl)-2,3,4,7,8,9,10,11,12,13,14,15,16,17-tetradecahydro-1H-cyclopenta[a]phenanthren-3-yl (3-amino-3-methylbutyl)(8-amino-8-methylnonyl)carbamate dihydrochloride] | 71.6 | 0.14 | 78 | 0.15 | 98.4 | 98.2 | 41692.8 ± 9336.8 | 20.6 ± 1.6
7 | CC[C@H](CC[C@@H](C)[C@H]1CC[C@H]2[C@@H]3CC=C4C[C@@H](OC(=O)N(CCCCCCCC(C)(C)N)CCC(C)(C)N)CC[C@]4(C)[C@H]3CC[C@]12C)C(C)C [SA153, (3S,8S,9S,10R,13R,14S,17R)-17-((2R,5R)-5-ethyl-6-methylheptan-2-yl)-10,13-dimethyl-2,3,4,7,8,9,10,11,12,13,14,15,16,17-tetradecahydro-1H-cyclopenta[a]phenanthren-3-yl (3-amino-3-methylbutyl)(8-amino-8-methylnonyl)carbamate dihydrochloride] | 69.3 | 0.12 | 72 | 0.15 | 98.5 | 95.8 | 35859.3 ± 5894.9 | 17.5 ± 1.4
8 | CC[C@H](CC[C@@H](C)[C@H]1CC[C@H]2[C@@H]3CC=C4C[C@@H](OC(=O)CCCC(=O)N(CCCCCCCC(C)N)CCC(C)N)CC[C@]4(C)[C@H]3CC[C@]12C)C(C)C (stereo partly drawn) [SA154, (3S,8S,9S,10R,13R,14S,17R)-17-((2R,5R)-5-ethyl-6-methylheptan-2-yl)-10,13-dimethyl-2,3,4,7,8,9,10,11,12,13,14,15,16,17-tetradecahydro-1H-cyclopenta[a]phenanthren-3-yl 5-((3-aminobutyl)(8-aminononyl)amino)-5-oxopentanoate dihydrochloride] | 72.8 | 0.13 | 73 | 0.18 | 99.1 | 99.6 | 28128.6 ± 4655.3 | 16.7 ± 0.8
9 | CC[C@H](CC[C@@H](C)[C@H]1CC[C@H]2[C@@H]3CC=C4C[C@@H](OC(=O)CCCC(=O)N(CCCCCCCC(C)(C)N)CCC(C)(C)N)CC[C@]4(C)[C@H]3CC[C@]12C)C(C)C [SA155, (3S,8S,9S,10R,13R,14S,17R)-17-((2R,5R)-5-ethyl-6-methylheptan-2-yl)-10,13-dimethyl-2,3,4,7,8,9,10,11,12,13,14,15,16,17-tetradecahydro-1H-cyclopenta[a]phenanthren-3-yl 5-((3-amino-3-methylbutyl)(8-amino-8-methylnonyl)amino)-5-oxopentanoate dihydrochloride] | 71.1 | 0.13 | 73 | 0.11 | 99.4 | 98.9 | 31922.9 ± 8053.8 | 12.2 ± 1.0

— patent US20260109732A1, “LIPID AMINES” (ModernaTX, Inc., priority 2021, published 2026)
